# Results as given in patent US20080153827A1, “Method for the Treatment or Prevention of Cardiac Hypertrophy” (priority 2004, published 2008).
# Tests used:
# Format in all cases: in vivo, rat
# [1] = tested on: Dahl salt-sensitive rats (SS/JrHsd) on high salt diet; assay: Heart weight/body weight ratio in Dahl salt-sensitive rats on high salt diet; details: both doses (10 mg/l and 1 mg/l in drinking water), 7 weeks, FIG. 1
# Method: (§1) 6-week-old male Dahl salt-sensitive rats (SS/JrHsd) received the following diet and drug regimens for 7 weeks: 1) Dahl SS controls on high salt diet, 2) Dahl SS rats on high salt diet+high-dose levosimendan (10 mg/l of levosimendan in drinking water), 3) Dahl SS rats on high salt diet+low-dose levosimendan (1 mg/l of levosimendan in drinking water) and 4) Dahl SS controls on low salt diet. High salt diet was produced by adding NaCl to commercial low salt diet. The consumption of drinking water and food as well as the body weight and general health of the animals were monitored. Systolic blood pressure was measured by using a tail cuff blood pressure at week 3.5 and week 7. At the end the study the hearts was excised, washed with ice-cold saline, blotted dry and weighed.
# [2] = tested on: Dahl salt-sensitive rats (SS/JrHsd) on high salt diet; assay: Systolic blood pressure by tail cuff in Dahl salt-sensitive rats; details: data not shown
# Method: as §1
# [3] = tested on: Myocardial SERCA2 and NCX expressions; assay: Myocardial SERCA2/NCX protein ratio by Western blot; details: both doses (10 mg/l and 1 mg/l in drinking water), 7 weeks, high salt diet; FIG. 2
# Method: as §1
# Myocardial SERCA2 and NCX expressions were determined by Western blot analysis using standard procedure. Myocardial samples were homogenized in extraction buffer and protease inhibitor. Myocardial samples (15 μg protein per lane) were electrophoretically separated by SDS-PAGE (8% Acryl amide). The proteins were transferred to a PVDF membrane by semi-dry blotting in electrophoresis device. […] The films were scanned in a densitometer and a semi-quantitative measurement of the relative intensity of each protein band was performed using the “GeneSnap”-software program.
# [4] = tested on: atrial natriuretic peptide (ANP) mRNA; assay: Myocardial atrial natriuretic peptide (ANP) mRNA expression by quantitative real time PCR; details: high dose (10 mg/l in drinking water), 7 weeks, high salt diet; FIG. 3
# Method: as §1, with “At the end the study the hearts was excised, washed with ice-cold saline, blotted dry and weighed.” left out
# Total RNA from the rat hearts were collected, treated with DNAse 1 and reverse transcribed to cDNA by incubation of 50 min in 45° C. with presence of reverse transcription enzyme (Enhanced avian HS RT-PCR kit, Sigma Chemicals Co.). 1 μl of cDNA was subjected to a quantitative real time polymerase chain reaction by Lightcycler instrument (Roche Diagnostics) for detection of ANP and GAPDH mRNAs. […] After amplification the quality of PCR products were analyzed with the melting step consisting of heating to 95° C., cooling to annealing temperature for 15 seconds, and finally a slow rise in temperature to 95° C. with a continuous acquisition of fluorescence decline. […]
# [5] = tested on: Dahl salt-sensitive rats (SS/JrHsd) on high salt diet; assay: Echocardiography: interventricular septum (IVS) wall thickness; details: 3.5 weeks, FIG. 4
# Method: 6-week-old male Dahl salt-sensitive rats (SS/JrHsd) received the following diet and drug regimens: Dahl salt-sensitive rats on low salt diet (1), on high salt diet (2), on high salt diet treated with 10 mg/l of levosimendan in drinking water (3), on high salt diet treated with 1 mg/l of levosimendan in drinking water (4) and on high salt diet treated with 0.5 mg/kg of the active metabolite (II) (OR-1896) of levosimendan in drinking water (5). High salt diet was produced by adding NaCl to commercial low salt diet. After 3.5 weeks transthoracic echocardiography was performed using a Toshiba Ultrasound System and a 15 MHz linear transducer under light isoflurane anesthesia. Using two-dimensional imaging, a short axis view of the left ventricle at the level of the papillary muscles was obtained and the two-dimensionally guided M-mode recording through the anterior and posterior walls of the left ventricle was obtained.
SMILES,development of cardiac hypertrophy measured as heart weight-to-body weight-ratio [1],blood pressure ([2]; high-dose (10 mg/l in drinking water)),blood pressure ([2]; low-dose (1 mg/l in drinking water)),myocardial SERCA2-to-NCX-ratio [3],myocardial ANP mRNA expression [4],Interventricular septum (IVS) wall thickness ([5]; 10 mg/l and 1 mg/l in drinking water),Interventricular septum (IVS) wall thickness ([5]; 0.5 mg/kg in drinking water)
"CC1CC(=O)NN=C1c1ccc(NN=C(C#N)C#N)cc1 (single isomer, unassigned; (-)) [Levosimendan, (−)-enantiomer of [[4-(1,4,5,6-tetrahydro-4-methyl-6-oxo-3-pyridazinyl)phenyl]hydrazono]propanedinitrile]",equally prevented the development of cardiac hypertrophy,produced a transient decrease in blood pressure,did not influence blood pressure,increased SERCA2-to-NCX-ratio in the heart,decrease ANP mRNA expression to levels found in low salt diet controls,significantly reduce the increased heart wall thickness,–
"CC(=O)Nc1ccc(C2=NNC(=O)C[C@H]2C)cc1 [active metabolite (II), (R)-N-[4-(1,4,5,6-tetrahydro-4-methyl-6-oxo-3-pyridazinyl)phenyl]acetamide]",–,–,–,–,–,–,significantly reduce the increased heart wall thickness
